Results as given in BindingDB's records for doi:10.1021/acs.jmedchem.0c01754 (Astrazeneca, 2020).

Molecular target: Cyclin-T1/Cyclin-dependent kinase 9 (Homo sapiens, UniProt O60563+P50750)
Test: Inhibition of recombinant full length human N-terminal GST-fused CDK9 (1 to 372 residues)/His-tagged CyclinT1 (1 to 726 residues) expressed in baculovirus infected insect cells using FITC-X-GSRTPMY-NH2 as substrate preincubated for 10 mins followed by MgCl2 addition and measured after 90 mins in presence of 5 mM ATP by mobility shift assay

Cyclin-T1/Cyclin-dependent kinase 9, sequence (O60563 whole entry, the tested form may be a part): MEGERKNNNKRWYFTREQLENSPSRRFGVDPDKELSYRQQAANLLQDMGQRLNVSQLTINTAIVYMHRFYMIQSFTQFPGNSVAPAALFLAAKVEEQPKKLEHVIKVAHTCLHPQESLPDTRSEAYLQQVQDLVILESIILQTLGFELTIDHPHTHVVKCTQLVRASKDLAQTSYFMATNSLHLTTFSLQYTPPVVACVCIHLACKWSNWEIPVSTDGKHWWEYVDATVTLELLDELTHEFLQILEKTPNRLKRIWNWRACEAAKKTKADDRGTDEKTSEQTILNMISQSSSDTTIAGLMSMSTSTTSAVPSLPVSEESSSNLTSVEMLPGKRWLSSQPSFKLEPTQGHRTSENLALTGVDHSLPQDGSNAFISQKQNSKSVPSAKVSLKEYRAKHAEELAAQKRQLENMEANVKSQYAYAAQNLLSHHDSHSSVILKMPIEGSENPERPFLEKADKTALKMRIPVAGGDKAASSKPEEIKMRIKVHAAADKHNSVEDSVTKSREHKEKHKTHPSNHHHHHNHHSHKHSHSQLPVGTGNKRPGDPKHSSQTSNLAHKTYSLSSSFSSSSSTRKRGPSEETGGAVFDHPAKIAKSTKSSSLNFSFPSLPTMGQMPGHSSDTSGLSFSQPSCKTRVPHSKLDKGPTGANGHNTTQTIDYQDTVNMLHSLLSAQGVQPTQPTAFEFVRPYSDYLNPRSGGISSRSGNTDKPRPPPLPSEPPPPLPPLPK
Cyclin-T1/Cyclin-dependent kinase 9, sequence (P50750 whole entry, the tested form may be a part): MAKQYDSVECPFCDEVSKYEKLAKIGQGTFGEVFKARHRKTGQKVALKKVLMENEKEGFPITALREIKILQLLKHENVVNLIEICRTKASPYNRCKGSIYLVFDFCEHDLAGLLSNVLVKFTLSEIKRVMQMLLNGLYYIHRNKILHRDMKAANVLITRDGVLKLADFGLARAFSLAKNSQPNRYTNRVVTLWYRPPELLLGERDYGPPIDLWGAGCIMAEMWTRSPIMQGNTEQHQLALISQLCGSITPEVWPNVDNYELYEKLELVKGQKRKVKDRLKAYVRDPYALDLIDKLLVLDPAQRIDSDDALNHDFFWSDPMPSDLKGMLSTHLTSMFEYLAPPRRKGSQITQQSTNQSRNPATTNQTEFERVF

SMILES	IC50 [nM]
CC(=O)N[C@@H]1CCC[C@H](C(=O)Nc2cc(-c3cnn4c3CCCC4)c(F)cn2)C1 [US10717746, Example 63]	51
CC(=O)N[C@@H]1CCC[C@H](C(=O)Nc2cc(-c3cnn4c3CCCCC4)c(Cl)cn2)C1 [US10717746, Example 66]	23
CC(=O)N[C@@H]1CCC[C@H](C(=O)Nc2cc(-c3cnn4c3CCCC4O)c(Cl)cn2)C1 (stereo partly specified) [US10717746, Example 78]	60
CC(=O)N[C@@H]1CCC[C@H](C(=O)Nc2cc(-c3cn[nH]c3CCCCO)c(Cl)cn2)C1 [US10717746, Example 78a]	85
CC(=O)N[C@@H]1CCC[C@H](C(=O)Nc2cc(-c3cnn4c3CC(C)(C)C4)c(C#N)cn2)C1 [US10717746, Example 39]	62
CC(=O)N[C@@H]1CCC[C@H](C(=O)Nc2cc(-c3cnn4c3NCCC4)c(Cl)cn2)C1 [US10717746, Example 15]	350
CC(=O)N[C@@H]1CCC[C@H](C(=O)Nc2cc(-c3cn[nH]c3CC(C)(C)CO)c(Cl)cn2)C1 [US10717746, Example 82a]	139
CC1(C)Cc2c(-c3cc(NC(=O)[C@H]4C[C@@H](O)C4)ncc3Cl)cnn2C1 [US10717746, Example 27]	25

Molecules with a lower IC50, results first:

IC50 [nM]	SMILES
3	CC(=O)N[C@@H]1CC[C@H](C(=O)Nc2cc(-c3cnn4c3CC(C)(C)C4)c(Cl)cn2)C1 [US10717746, Example 48]
8	CC(=O)N[C@@H]1CCC[C@H](C(=O)Nc2cc(-c3cnn4c3CC(C)(C)CC4)ccn2)C1 [US10717746, Example 44]
4	CC(=O)N[C@@H]1CCC[C@H](C(=O)Nc2cc(-c3cnn4c3CC(C)(C)C4)c(F)cn2)C1 [US10717746, Example 25]
